Measured values from paper PMC10525927, “First Generation of Antioxidant Precursors for Bioisosteric Se-NSAIDs: Design, Synthesis, and In Vitro and In Vivo Anticancer Evaluation” (Antioxidants, 2023).

Columns and labels:
Type in all cases: cell-based
HT-29 colon cancer cells = assay: MTT cell viability assay, HT-29; details: mean ± SD; for IC50 / GI50: Homo sapiens, HT-29, 48 h; for TGI HT-29: in vitro TGI concentration
Description: (§1) The cell lines were purchased from the American Type Culture Collection (ATCC). The cancer cell lines DU-145, PC-3, T-47D, MDA-MB-231, H1299, and A549, and the non-tumorigenic cells (184B5 and BEAS-2B), were maintained in RPMI 1640 medium (Gibco, Alcobendas, Madrid, Spain) supplemented with 10% fetal bovine serum (FBS; Gibco) and 1% antibiotics (10.00 units/mL penicillin and 10.00 mg/mL streptomycin; Gibco). Colon cancer cells HT-29 and HCT-116 were cultured in McCoy’s 5A medium (Gibco) supplemented with 10% fetal bovine serum (FBS; Gibco) and 1% antibiotics (10.00 units/mL penicillin and 10.00 mg/mL streptomycin; Gibco). Cells were maintained in tissue culture flasks at 37 °C and 5% CO2. The culture medium was replaced every three days.
(§2) The antiproliferative activity and selectivity in vitro of the Se-NSAID derivatives were determined by the (3-(4,5-dimethylthiazol-2-yl)-2,5-diphenyltetrazolium bromide) (MTT) assay. Compounds were dissolved in DMSO at a concentration of 0.01 M and serial dilutions were prepared. The Se-NSAID derivatives were tested at seven concentrations ranging between 1 and 100 µM in the colon (HT-29 and HCT-116), prostate (DU-145 and PC-3), breast (MDA-MB-231 and T-47D), and lung (H1299 and A549) cancer cell lines. The non-tumorigenic breast (184B5) and lung (BEAS-2B) cell lines were also tested to assess the selectivity of the compounds following the same procedure. A total of 1 × 10^4 cells were seeded per well in 96-well plates and incubated at 5% CO2 and 37 °C for 24 h. Then, cells were treated with either DMSO or increasing concentrations of the corresponding Se-NSAID derivatives for 48 h. A volume of 20 µL of MTT (5 mg/mL) was added to each well 2.5 h before the termination point. At the end of the experiment, the medium was removed, and the resultant formazan crystals formed by mitochondrial reduction of MTT were dissolved in 50 µL of DMSO. Absorbance was measured at 550 nm. IC50, GI50, TGI, and LC50 values were calculated using OriginPro version 8.5.1. software by nonlinear curve fitting. Selectivity indexes (SI) were calculated as the ratio of the IC50 values determined for the nonmalignant and the tumoral cells in the breast (IC50 (184B5)/IC50 (MDA-MB-231) and IC50 (184B5)/IC50 (T-47D)) and lung (IC50 (BEAS-2B)/IC50 (H1299) and IC50 (BEAS-2B)/IC50 (A549)) cell lines. Data were obtained from at least three independent experiments performed in triplicates.

[1] = tested on: HCT-116 colon cancer cells; assay: MTT cell viability assay, HCT-116; details: mean ± SD; for TGI HCT-116: in vitro TGI concentration
Description: as §1, §2

[2] = tested on: DU-145 prostate cancer cells; assay: MTT cell viability assay, DU-145; details: mean ± SD; for LD50 DU-145 / GI50 / TGI DU-145: Table S1; for TGI DU-145: in vitro TGI concentration
Description: as §1, §2

[3] = tested on: PC-3 prostate cancer cells; assay: MTT cell viability assay, PC-3; details: 48 h, mean ± SD; for GI50 / LD50 PC-3 / TGI PC-3: Table S1; for TGI PC-3: in vitro TGI concentration
Description: as §1, §2

[4] = tested on: MDA-MB-231 breast cancer cells; assay: MTT cell viability assay, MDA-MB-231; details: mean ± SD; for IC50 / GI50: Homo sapiens, MDA-MB-231, 48 h; for GI50 / TGI MDA-MB-231: Table S1; for TGI MDA-MB-231: in vitro TGI concentration, 48 h
Description: as §1, §2

[5] = tested on: T-47D breast cancer cells; assay: MTT cell viability assay, T-47D; details: 48 h, mean ± SD; for LD50 T-47D / GI50 / TGI T-47D: Table S1; for IC50 / GI50: Homo sapiens, T47D; for TGI T-47D: in vitro TGI concentration
Description: as §1, §2

H1299 lung cancer cells = assay: MTT cell viability assay, H1299; details: mean ± SD; for TGI H1299: in vitro TGI concentration
Description: as §1, §2

A549 lung cancer cells = assay: MTT cell viability assay, A549; details: mean ± SD; for TGI A549: in vitro TGI concentration
Description: as §1, §2

[6] = tested on: 184B5 non-tumorigenic breast (mammary gland) cells; assay: MTT cell viability assay, 184B5; details: mean ± SD; for IC50: nonmalignant breast cells; for TGI 184B5: in vitro TGI concentration
Description: as §1, §2

[7] = tested on: BEAS-2B non-tumorigenic lung (bronchial epithelium) cells; assay: MTT cell viability assay, BEAS-2B; details: 48 h, mean ± SD; for LD50 BEAS-2B / GI50 / TGI BEAS-2B: Table S1; for IC50: nonmalignant lung cells; for TGI BEAS-2B: in vitro TGI concentration
Description: as §1, §2

[8] = tested on: panel of eight cancer cell lines; assay: MTT cell viability assay, statements on the whole panel; details: 48 h
Description: as §1, §2

[9] = Homo sapiens, HCT-116, 48 h, Table S1
[10] = Homo sapiens, NCI-H1299, 48 h, Table S1
[11] = Homo sapiens, A549, 48 h, Table S1
[12] = Homo sapiens, 184B5, 48 h, Table S1

CC(C(=O)[Se][Se]C(=O)C(C)c1cccc(C(=O)c2ccccc2)c1)c1cccc(C(=O)c2ccccc2)c1 (centres unmarked) [Compound 4, 2-(3-Benzoylphenyl)propanoic diselenoperoxyanhydride]
LD50 HT-29 (HT-29 colon cancer cells; 48 h, Table S1): 62.5 ± 14.3 µM
IC50 (HT-29 colon cancer cells): 39.7 ± 3.3 µM
GI50 (HT-29 colon cancer cells; Table S1): 24.4 ± 2.6 µM
TGI HT-29 (HT-29 colon cancer cells; 48 h, Table S1): 36.2 ± 3.0 µM
IC50 ([1]; Homo sapiens, HCT-116, 48 h): 5.9 ± 1.1 µM
GI50 [1, 9]: 4.3 ± 0.6 µM
TGI HCT-116 ([1]; 48 h, Table S1): 6.7 ± 1.9 µM
LD50 DU-145 ([2]; 48 h): 39.6 ± 2.4 µM
IC50 ([2]; Homo sapiens, DU-145, 48 h): 27.9 ± 3.2 µM
GI50 ([2]; Homo sapiens, DU-145, 48 h): 19.5 ± 3.5 µM
TGI DU-145 ([2]; 48 h): 28.5 ± 2.9 µM
IC50 [3]: 5.8 ± 0.6 µM
GI50 [3]: 4.8 ± 0.4 µM
LD50 PC-3 [3]: 6.7 ± 1.2 µM
TGI PC-3 [3]: 5.5 ± 0.5 µM
IC50 [4]: 4.3 ± 1.2 µM
GI50 [4]: 2.4 ± 0.5 µM
TGI MDA-MB-231 [4]: 4.2 ± 1.7 µM
LD50 T-47D [5]: 27.2 ± 2.3 µM
IC50 [5]: 26 ± 2 µM
GI50 [5]: > 100 µM
TGI T-47D [5]: 9.5 ± 2.3 µM
LD50 H1299 (H1299 lung cancer cells; 48 h, Table S1): 43.5 ± 1.8 µM
IC50 (H1299 lung cancer cells; Homo sapiens, NCI-H1299, 48 h): 31.6 ± 1.7 µM
GI50 (H1299 lung cancer cells; [10]): 24.6 ± 1.8 µM
TGI H1299 (H1299 lung cancer cells; 48 h, Table S1): 33.6 ± 1.6 µM
IC50 (A549 lung cancer cells; Homo sapiens, A549, 48 h): 11.7 ± 0.9 µM
GI50 (A549 lung cancer cells; [11]): 8.1 ± 0.4 µM
TGI A549 (A549 lung cancer cells; 48 h, Table S1): 19.9 ± 3.4 µM
IC50 ([6]; 48 h): 5.9 ± 0.8 µM
GI50 [6, 12]: 4.8 ± 0.3 µM
IC50 ([6]; Homo sapiens, 184B5, 48 h): ~5 µM
TGI 184B5 ([6]; 48 h, Table S1): 5.4 ± 0.4 µM
LD50 BEAS-2B [7]: 5.4 ± 0.4 µM
IC50 [7]: 5.2 ± 0.4 µM
GI50 ([7]; Homo sapiens, BEAS-2B): 4.2 ± 0.6 µM
IC50 ([7]; Homo sapiens, BEAS-2B): ~5 µM
TGI BEAS-2B [7]: 4.7 ± 0.3 µM

CC(=O)Oc1ccccc1C(=O)[Se][Se]C(=O)c1ccccc1OC(C)=O [Compound 1, 2-Acetoxybenzoic diselenoperoxyanhydride]
IC50 (HT-29 colon cancer cells): 6.6 ± 2.2 µM
GI50 (HT-29 colon cancer cells; Table S1): 3.9 ± 0.4 µM
TGI HT-29 (HT-29 colon cancer cells; 48 h, Table S1): 6.2 ± 1.9 µM
IC50 ([1]; 48 h): 39.2 ± 7.3 µM
LD50 HCT-116 ([1]; 48 h, Table S1): 88.0 ± 3.5 µM
IC50 ([1]; Homo sapiens, HCT-116, 48 h): ~40 µM
GI50 [1, 9]: 21 ± 4 µM
TGI HCT-116 ([1]; 48 h, Table S1): 44.5 ± 7.1 µM
IC50 ([2]; 48 h): 5 ± 0.1 µM
LD50 DU-145 ([2]; 48 h): 6.1 ± 0.7 µM
IC50 ([2]; Homo sapiens, DU-145, 48 h): < 10 µM
GI50 ([2]; Homo sapiens, DU-145, 48 h): 4.4 ± 0.5 µM
TGI DU-145 ([2]; 48 h): 5.1 ± 0.2 µM
GI50 [3]: 2.8 ± 0.2 µM
LD50 PC-3 [3]: 3.3 ± 0.4 µM
TGI PC-3 [3]: 3.0 ± 0.3 µM
IC50 [4]: 18.3 ± 6.9 µM
GI50 [4]: 6.6 ± 2.2 µM
TGI MDA-MB-231 [4]: 15.3 ± 4.6 µM
LD50 T-47D [5]: 6.0 ± 1.9 µM
IC50 [5]: 5.9 ± 1.4 µM
GI50 [5]: 1.6 ± 0.3 µM
TGI T-47D [5]: 2.9 ± 0.6 µM
IC50 (H1299 lung cancer cells; 48 h): 8.6 ± 0.8 µM
IC50 (H1299 lung cancer cells; Homo sapiens, NCI-H1299, 48 h): < 10 µM
GI50 (H1299 lung cancer cells; [10]): 7.7 ± 1.2 µM
TGI H1299 (H1299 lung cancer cells; 48 h, Table S1): 9.4 ± 0.8 µM
IC50 (A549 lung cancer cells; 48 h): 7 ± 1.3 µM
LD50 A549 (A549 lung cancer cells; 48 h, Table S1): 74.6 ± 5.9 µM
IC50 (A549 lung cancer cells; Homo sapiens, A549, 48 h): < 10 µM
GI50 (A549 lung cancer cells; [11]): > 100 µM
TGI A549 (A549 lung cancer cells; 48 h, Table S1): 26.2 ± 5.8 µM
LD50 184B5 ([6]; 48 h, Table S1): 21.1 ± 3.9 µM
IC50 ([6]; 48 h): 14.4 ± 1.5 µM
GI50 [6, 12]: 7 ± 1.1 µM
IC50 ([6]; Homo sapiens, 184B5, 48 h): 14 to 19 µM
TGI 184B5 ([6]; 48 h, Table S1): 11.3 ± 1.4 µM
LD50 BEAS-2B [7]: 17.0 ± 5.7 µM
IC50 [7]: 18.5 ± 3 µM
GI50 ([7]; Homo sapiens, BEAS-2B): 3.9 ± 1.3 µM
IC50 ([7]; Homo sapiens, BEAS-2B): 14 to 19 µM
TGI BEAS-2B [7]: 8.4 ± 2.4 µM

COc1ccc2cc(C(C)C(=O)[Se][Se]C(=O)C(C)c3ccc4cc(OC)ccc4c3)ccc2c1 (centres unmarked) [Compound 3, 2-(6-Methoxynaphthalen-2-yl)propanoic diselenoperoxyanhydride]
IC50 HT-29 (HT-29 colon cancer cells; 48 h): no activity at all
IC50 (HT-29 colon cancer cells): > 50 µM
GI50 (HT-29 colon cancer cells; Table S1): 6.8 ± 1.4 µM
IC50 ([1]; Homo sapiens, HCT-116, 48 h): 9.1 ± 5.9 µM
GI50 [1, 9]: 9.3 ± 4.7 µM
TGI HCT-116 ([1]; 48 h, Table S1): 30.9 ± 16.7 µM
LD50 DU-145 ([2]; 48 h): 10.4 ± 2.4 µM
IC50 ([2]; Homo sapiens, DU-145, 48 h): 6.1 ± 0.6 µM
GI50 ([2]; Homo sapiens, DU-145, 48 h): 5 ± 0.2 µM
TGI DU-145 ([2]; 48 h): 6.1 ± 0.6 µM
IC50 [3]: 5.2 ± 0.2 µM
GI50 [3]: 4.4 ± 0.3 µM
LD50 PC-3 [3]: 5.9 ± 0.9 µM
TGI PC-3 [3]: 5.0 ± 0.1 µM
IC50 [4]: 5.7 ± 0.8 µM
GI50 [4]: 5.2 ± 0.2 µM
TGI MDA-MB-231 [4]: 5.6 ± 0.8 µM
LD50 T-47D [5]: 6.3 ± 0.7 µM
IC50 [5]: 5.6 ± 0.1 µM
GI50 [5]: 1.8 ± 0.2 µM
TGI T-47D [5]: 3.1 ± 0.3 µM
IC50 (H1299 lung cancer cells; Homo sapiens, NCI-H1299, 48 h): 8.1 ± 2.5 µM
GI50 (H1299 lung cancer cells; [10]): 6.7 ± 1.1 µM
IC50 (A549 lung cancer cells; 48 h): > 100 µM
IC50 A549 (A549 lung cancer cells; 48 h): no activity at all
IC50 (A549 lung cancer cells; Homo sapiens, A549, 48 h): > 50 µM
GI50 (A549 lung cancer cells; [11]): 3.3 ± 0.4 µM
GI50 [6, 12]: 7.1 ± 0.5 µM
IC50 ([6]; Homo sapiens, 184B5, 48 h): 11.9 ± 1 µM
TGI 184B5 ([6]; 48 h, Table S1): 9.4 ± 0.2 µM
LD50 BEAS-2B [7]: 12.3 ± 2.1 µM
GI50 ([7]; Homo sapiens, BEAS-2B): 7 ± 2.5 µM
IC50 ([7]; Homo sapiens, BEAS-2B): 11.2 ± 1 µM
TGI BEAS-2B [7]: 9.0 ± 1.2 µM
GI50 ([8]; eight cancer cell lines, read-out: GI50 across all the cancer cell lines tested): < 10 µM
IC50 ([8]; read-out: average IC50 in prostate (DU-145 and PC-3) and breast (MDA-MB-231 and T-47D) cancer cell lines): ~5 µM
